In patent publication US10017791B2, “Coryneform bacterium transformant and process for producing 4-hydroxybenzoic acid or salt thereof using the same” (GREEN PHENOL DEVELOPMENT CO., LTD., priority 2014, dated 2018):

Tests used:
Rhodobacter sphaeroides = experiment: Growth inhibition test in aerobic culture (influence of 4-HBA); assay type: cell-based; conditions: LB liquid medium, 30° C., OD610
Experimental: (§1) A growth inhibition test in aerobic culture was performed to examine the influence of 4-HBA on Corynebacterium glutamicum, Escherichia coli, Pseudomonas putida, and Rhodobacter sphaeroides. Pseudomonas putida S12, which was used for the test, is reported to be a solvent-resistant strain to produce 4-HBA via tyrosine.
Rhodobacter sphaeroides was applied to LB agar medium (1% polypeptone, 0.5% yeast extract, 0.5% NaCl and 1.5% agar) and was left stand in the dark at 30° C. for 20 hours.
An inoculation loop of the Rhodobacter sphaeroides grown on a plate as above was applied to LB liquid medium (1% polypeptone, 0.5% yeast extract, and 0.5% NaCl), and aerobic culture was performed with shaking at 30° C. for 13 hours.
(§2) The Rhodobacter sphaeroides grown in the above conditions was inoculated into 100 mL of LB liquid medium in such a way that the initial bacterial cell concentration would be OD=0.1, 4-HBA was added at the same time in such a way that the final concentration would be 0, 100, or 200 mM, and aerobic culture was performed with shaking at 30° C. The growth of the bacterial cells was determined by absorbance measurement at OD610.

Escherichia coli JM109 = experiment: as above; assay type: cell-based; conditions: LB liquid medium, 37° C., OD610
Experimental: as §1
Escherichia coli JM109 was applied to LB agar medium (1% polypeptone, 0.5% yeast extract, 0.5% NaCl and 1.5% agar) and was left stand in the dark at 37° C. for 15 hours.
An inoculation loop of the Escherichia coli JM109 grown on a plate as above was applied to LB liquid medium (1% polypeptone, 0.5% yeast extract, and 0.5% NaCl), and aerobic culture was performed with shaking at 37° C. for 13 hours.
as §2, with “Escherichia coli JM109” for “Rhodobacter sphaeroides”, “OD=0.05,” for “OD=0.1,”, “37°” for “30°”

[1] = test system: Corynebacterium glutamicum R; experiment: as above; assay type: cell-based; conditions: for Growth of Corynebacterium glutamicum: aerobic, A liquid medium, 33° C., OD610
Experimental: as §1
Corynebacterium glutamicum was applied to A agar medium (2 g of (NH2)2CO, 7 g of (NH4)2SO4, 0.5 g of KH2PO4, 0.5 g of K2HPO4, 0.5 g of MgSO4.7H2O, 1 mL of 0.06% (w/v) Fe2SO4.7H2O+0.042% (w/v) MnSO4.2H2O, 1 mL of 0.02% (w/v) biotin solution, 2 mL of 0.01% (w/v) thiamin solution, 2 g of yeast extract, 7 g of vitamin assay casamino acid, 40 g of glucose, and 15 g of agar were suspended in 1 L of distilled water) and was left stand in the dark at 33° C. for 15 hours.
An inoculation loop of Corynebacterium glutamicum R strain grown on a plate as above was inoculated into a test tube containing 10 mL of A liquid medium (2 g of (NH2)2CO, 7 g of (NH4)2SO4, 0.5 g of KH2PO4, 0.5 g of K2HPO4, 0.5 g of MgSO4.7H2O, 1 mL of 0.06% (w/v) Fe2SO4.7H2O+0.042% (w/v) MnSO4.2H2O, 1 mL of 0.02% (w/v) biotin solution, 2 mL of 0.01% (w/v) thiamin solution, 2 g of yeast extract, 7 g of vitamin assay casamino acid, and 40 g of glucose were suspended in 1 L of distilled water) and was aerobically cultured with shaking at 33° C. for 15 hours.
The Corynebacterium glutamicum R strain grown in the above conditions was inoculated into 10 mL of A liquid medium in such a way that the initial bacterial cell concentration would be OD610=0.05, 4-HBA was added at the same time in such a way that the final concentration would be 0, 100, 200, 250, or 300 mM, and aerobic culture was performed with shaking at 33° C. The growth of the bacterial cells was determined by absorbance measurement at OD610.

[2] = molecular target: T1, chorismate-pyruvate lyase of Cronobacter sakazakii (Cronobacter sakazakii, UniProt A7MPN9); experiment: Product inhibition of chorismate-pyruvate lyase activity by 4-HBA (IC50); assay type: biochemical; conditions: cell lysate supernatant of strain HBA12
T1 construct: 5′-[…]-3′
Experimental: (§3) Each kind of the bacterial cells cultured and proliferated as above was collected by centrifugation (8,000 rpm, 4° C., 10 minutes). After disrupting the bacterial cells by sonication, centrifugation (15,000 rpm, 4° C., 20 minutes) was performed. Using the supernatant of the cell lysate as a crude enzyme liquid, chorismate-pyruvate lyase activity was determined by the following method. The crude enzyme liquid, 50 mM Tris-HCl (pH 7.5), 0.5 mM of chorismate Ba salt, 0.2 mM of NADH, 0.2 M of NaCl and 5 units of lactate dehydrogenase were mixed, the reaction was allowed to proceed at 33° C., and the decrease in absorbance of NADH at 340 nm was monitored to analyze the initial rate of the reaction. From the initial rate of the reaction and the protein concentration, the specific activity was calculated (the amount of the enzyme that produces 1 μmol of 4-HBA per minute was defined as 1 unit). (After the reaction mixture was filtered, the resulting 4-HBA was subjected to HPLC for direct detection of the peak of 4-HBA (Cosmosil C18 ARII made by Nacalai Tesque, mobile phase: 20% methanol and 0.07% perchloric acid) to separately confirm that the two assay methods were similar in quantitative performance.)
(§4) Using the supernatants of the cell lysates of the strains of HBA-1 to HBA-21 prepared in Example 2, inhibition by the product, 4-HBA, was examined.

[3] = molecular target: chorismate-pyruvate lyase of Enterobacter aerogenes (Klebsiella aerogenes, UniProt A0A0H3FPH2); experiment: as above; assay type: biochemical; conditions: cell lysate supernatant of strain HBA15
Experimental: as §3, §4

[4] = molecular target: chorismate-pyruvate lyase of Pantoea ananatis (Pantoea ananatis, UniProt A0ACE3JNM4); experiment: as above; assay type: biochemical; conditions: cell lysate supernatant of strain HBA1
Experimental: as §3, §4

[5] = molecular target: chorismate-pyruvate lyase of Providencia rustigianii (Providencia rustigianii, UniProt D1P752); experiment: as above; assay type: biochemical; conditions: cell lysate supernatant of strain HBA2
Experimental: as §3, §4

[6] = molecular target: chorismate-pyruvate lyase of Pseudoalteromonas haloplanktis (Pseudoalteromonas haloplanktis, UniProt A0A9W4VR20, L6V); experiment: as above; assay type: biochemical
Experimental: as §3, §4

[7] = molecular target: chorismate-pyruvate lyase of Citrobacter koseri (Citrobacter koseri, UniProt A8AN89); experiment: as above; assay type: biochemical; conditions: cell lysate supernatant of strain HBA14
Experimental: as §3, §4

[8] = molecular target: chorismate-pyruvate lyase of Providencia stuartii (Providencia stuartii, UniProt A0A1S1HSD5); experiment: as above; assay type: biochemical; conditions: cell lysate supernatant of strain HBA3
Experimental: as §3, §4

[9] = molecular target: chorismate-pyruvate lyase of Azotobacter vinelandii (Azotobacter vinelandii, UniProt C1DK46); experiment: as above; assay type: biochemical; conditions: cell lysate supernatant of strain HBA19
Experimental: as §3, §4

[10] = molecular target: chorismate-pyruvate lyase of Pseudoalteromonas piscicida (Pseudoalteromonas piscicida, UniProt A0ABN5CDX6, M1V); experiment: as above; assay type: biochemical; conditions: cell lysate supernatant of strain HBA10
Experimental: as §3, §4

[11] = molecular target: chorismate-pyruvate lyase of Morganella morganii (Morganella morganii, UniProt M1SIE1); experiment: as above; assay type: biochemical; conditions: cell lysate supernatant of strain HBA18
Experimental: as §3, §4

[12] = molecular target: chorismate-pyruvate lyase of Cupriavidus taiwanensis (Cupriavidus taiwanensis, UniProt B3R6T5); experiment: as above; assay type: biochemical
Experimental: as §3, §4

[13] = molecular target: chorismate-pyruvate lyase of Pseudomonas putida (Pseudomonas putida, UniProt Q88C66); experiment: as above; assay type: biochemical; conditions: cell lysate supernatant of strain HBA17
Experimental: as §3, §4

[14] = molecular target: chorismate-pyruvate lyase of Shewanella putrefaciens (Shewanella putrefaciens, UniProt A0ABX8XB71); experiment: as above; assay type: biochemical; conditions: cell lysate supernatant of strain HBA20
Experimental: as §3, §4

[15] = molecular target: chorismate-pyruvate lyase of Providencia alcalifaciens (Providencia alcalifaciens, UniProt B6XE56); experiment: as above; assay type: biochemical; conditions: cell lysate supernatant of strain HBA6
Experimental: as §3, §4

[16] = molecular target: T2, chorismate-pyruvate lyase of Escherichia coli (Escherichia coli, UniProt P26602); experiment: as above; assay type: biochemical; conditions: cell lysate supernatant of strain HBA8
T2 construct: made in house; host or cells: Corynebacterium glutamicum R (crude cell-lysate supernatant)
Experimental: as §3, §4

[17] = molecular target: chorismate-pyruvate lyase of Escherichia fergusonii (Escherichia fergusonii, UniProt B7LL11); experiment: as above; assay type: biochemical; conditions: cell lysate supernatant of strain HBA9
Experimental: as §3, §4

[18] = molecular target: chorismate-pyruvate lyase of Providencia sneebia (Providencia sneebia, UniProt K8VZZ4); experiment: as above; assay type: biochemical; conditions: cell lysate supernatant of strain HBA4
Experimental: as §3, §4

[19] = molecular target: chorismate-pyruvate lyase of Providencia burhodogranariea (Providencia burhodogranariea, UniProt K8VY45); experiment: as above; assay type: biochemical; conditions: cell lysate supernatant of strain HBA7
Experimental: as §3, §4

[20] = molecular target: chorismate-pyruvate lyase of Enterobacter cloacae (Enterobacter cloacae, UniProt A0A0H3CH24); experiment: as above; assay type: biochemical; conditions: cell lysate supernatant of strain HBA16
Experimental: as §3, §4

Pseudomonas putida S12 = experiment: Growth inhibition test in aerobic culture (influence of 4-HBA); assay type: cell-based; conditions: 200 mM 4-HBA, LB liquid medium, 30° C., OD610
Experimental: as §1
Pseudomonas putida S12 was applied to LB agar medium (1% polypeptone, 0.5% yeast extract, 0.5% NaCl and 1.5% agar) and was left stand in the dark at 30° C. for 15 hours.
An inoculation loop of the Pseudomonas putida S12 grown on a plate as above was applied to LB liquid medium (1% polypeptone, 0.5% yeast extract, and 0.5% NaCl), and aerobic culture was performed with shaking at 30° C. for 13 hours.
as §2, with “Pseudomonas putida S12” for “Rhodobacter sphaeroides”, “OD610=0.05,” for “OD=0.1,”, “100, 200,” for “100,”, “300” for “200”

chorismate-pyruvate lyase of Providencia rustigianii, sequence (D1P752 1-167): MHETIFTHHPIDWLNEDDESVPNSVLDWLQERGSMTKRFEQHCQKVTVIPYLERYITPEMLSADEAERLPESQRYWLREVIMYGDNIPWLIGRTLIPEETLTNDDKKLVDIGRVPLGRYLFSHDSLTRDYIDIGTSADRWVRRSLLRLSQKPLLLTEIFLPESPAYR
chorismate-pyruvate lyase of Pseudoalteromonas haloplanktis, sequence (A0A9W4VR20 entry or part of it L6V): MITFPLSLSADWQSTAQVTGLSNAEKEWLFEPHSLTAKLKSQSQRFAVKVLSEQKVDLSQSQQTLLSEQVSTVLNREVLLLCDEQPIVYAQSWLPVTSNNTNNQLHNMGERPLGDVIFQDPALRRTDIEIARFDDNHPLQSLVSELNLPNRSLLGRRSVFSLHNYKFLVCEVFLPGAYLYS
chorismate-pyruvate lyase of Shewanella putrefaciens, sequence (A0ABX8XB71 entry or part of it): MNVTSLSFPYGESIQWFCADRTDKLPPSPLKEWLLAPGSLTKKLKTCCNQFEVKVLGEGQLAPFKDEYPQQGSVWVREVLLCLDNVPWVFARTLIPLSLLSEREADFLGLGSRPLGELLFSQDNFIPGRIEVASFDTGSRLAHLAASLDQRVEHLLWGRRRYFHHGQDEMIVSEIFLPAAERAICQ
chorismate-pyruvate lyase of Citrobacter koseri, sequence (A8AN89 whole entry, looked up): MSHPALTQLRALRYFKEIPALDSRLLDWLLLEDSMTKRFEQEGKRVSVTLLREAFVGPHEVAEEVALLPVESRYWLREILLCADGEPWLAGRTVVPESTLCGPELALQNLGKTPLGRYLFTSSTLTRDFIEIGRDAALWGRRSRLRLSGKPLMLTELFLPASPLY
chorismate-pyruvate lyase of Pseudoalteromonas piscicida, sequence (A0ABN5CDX6 1-160, stated change not applied): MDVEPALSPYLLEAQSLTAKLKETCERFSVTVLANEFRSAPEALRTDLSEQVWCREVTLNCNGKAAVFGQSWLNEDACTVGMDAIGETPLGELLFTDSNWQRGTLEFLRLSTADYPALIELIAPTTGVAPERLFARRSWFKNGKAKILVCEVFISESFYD
chorismate-pyruvate lyase of Providencia alcalifaciens, sequence (B6XE56 1-167): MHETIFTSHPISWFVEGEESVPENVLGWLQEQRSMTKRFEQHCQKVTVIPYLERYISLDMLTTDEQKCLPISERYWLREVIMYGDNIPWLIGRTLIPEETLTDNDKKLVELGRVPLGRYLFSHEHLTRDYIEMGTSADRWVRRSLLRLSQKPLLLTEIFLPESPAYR
chorismate-pyruvate lyase of Enterobacter aerogenes, sequence (A0A0H3FPH2 entry or part of it): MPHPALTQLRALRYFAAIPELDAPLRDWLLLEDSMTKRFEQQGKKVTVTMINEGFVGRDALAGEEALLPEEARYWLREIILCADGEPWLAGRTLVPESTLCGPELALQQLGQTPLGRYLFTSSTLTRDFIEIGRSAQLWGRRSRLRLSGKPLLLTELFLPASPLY
T2 sequence (P26602 whole entry): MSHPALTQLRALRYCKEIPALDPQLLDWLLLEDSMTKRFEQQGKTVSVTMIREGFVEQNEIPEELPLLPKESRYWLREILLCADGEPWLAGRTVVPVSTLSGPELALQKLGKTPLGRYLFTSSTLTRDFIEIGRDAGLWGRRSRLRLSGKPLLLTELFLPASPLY
chorismate-pyruvate lyase of Cupriavidus taiwanensis, sequence (B3R6T5 entry or part of it): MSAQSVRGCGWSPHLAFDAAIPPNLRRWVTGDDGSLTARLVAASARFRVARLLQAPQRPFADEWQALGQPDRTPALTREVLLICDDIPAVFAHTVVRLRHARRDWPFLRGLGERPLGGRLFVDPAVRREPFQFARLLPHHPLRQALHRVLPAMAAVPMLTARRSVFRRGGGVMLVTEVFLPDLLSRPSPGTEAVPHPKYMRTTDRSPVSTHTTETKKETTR
chorismate-pyruvate lyase of Morganella morganii, sequence (M1SIE1 entry or part of it): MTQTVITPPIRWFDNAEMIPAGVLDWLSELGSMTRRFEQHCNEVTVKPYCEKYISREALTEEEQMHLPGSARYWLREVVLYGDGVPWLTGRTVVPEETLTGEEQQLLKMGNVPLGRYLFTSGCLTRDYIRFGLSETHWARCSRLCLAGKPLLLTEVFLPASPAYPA
chorismate-pyruvate lyase of Escherichia fergusonii, sequence (B7LL11 entry or part of it): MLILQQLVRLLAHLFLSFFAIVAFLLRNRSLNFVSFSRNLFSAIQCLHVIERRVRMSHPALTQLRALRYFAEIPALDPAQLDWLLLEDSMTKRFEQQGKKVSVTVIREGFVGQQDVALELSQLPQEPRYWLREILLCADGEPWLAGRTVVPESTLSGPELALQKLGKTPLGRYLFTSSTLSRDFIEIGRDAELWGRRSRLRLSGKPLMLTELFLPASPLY
chorismate-pyruvate lyase of Pseudomonas putida, sequence (Q88C66 whole entry): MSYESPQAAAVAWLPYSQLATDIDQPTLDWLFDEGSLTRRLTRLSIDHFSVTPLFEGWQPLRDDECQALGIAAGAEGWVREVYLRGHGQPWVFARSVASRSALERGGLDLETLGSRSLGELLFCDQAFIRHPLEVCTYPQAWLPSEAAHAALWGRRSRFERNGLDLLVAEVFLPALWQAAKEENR
chorismate-pyruvate lyase of Azotobacter vinelandii, sequence (C1DK46 1-183): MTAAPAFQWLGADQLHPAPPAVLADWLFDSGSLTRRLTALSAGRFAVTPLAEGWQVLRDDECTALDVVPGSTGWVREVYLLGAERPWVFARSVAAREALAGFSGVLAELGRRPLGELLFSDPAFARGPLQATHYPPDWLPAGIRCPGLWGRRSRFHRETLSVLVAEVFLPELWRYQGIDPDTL
chorismate-pyruvate lyase of Providencia stuartii, sequence (A0A1S1HSD5 entry or part of it): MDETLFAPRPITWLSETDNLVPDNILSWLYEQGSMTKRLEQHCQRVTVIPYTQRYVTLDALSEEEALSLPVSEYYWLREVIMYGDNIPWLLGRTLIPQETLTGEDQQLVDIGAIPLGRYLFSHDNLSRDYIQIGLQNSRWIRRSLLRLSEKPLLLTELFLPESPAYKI
chorismate-pyruvate lyase of Enterobacter cloacae, sequence (A0A0H3CH24 entry or part of it): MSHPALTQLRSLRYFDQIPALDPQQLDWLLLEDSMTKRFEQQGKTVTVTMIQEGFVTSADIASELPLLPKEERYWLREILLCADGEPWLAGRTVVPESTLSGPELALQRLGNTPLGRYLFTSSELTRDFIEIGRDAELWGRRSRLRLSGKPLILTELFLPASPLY
chorismate-pyruvate lyase of Pantoea ananatis, sequence (A0ACE3JNM4 1-170): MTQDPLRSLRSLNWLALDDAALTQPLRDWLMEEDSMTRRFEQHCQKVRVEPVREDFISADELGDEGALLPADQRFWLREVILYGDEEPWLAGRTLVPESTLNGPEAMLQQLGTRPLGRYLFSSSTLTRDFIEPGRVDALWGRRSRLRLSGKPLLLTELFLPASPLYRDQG
chorismate-pyruvate lyase of Providencia sneebia, sequence (K8VZZ4 1-168): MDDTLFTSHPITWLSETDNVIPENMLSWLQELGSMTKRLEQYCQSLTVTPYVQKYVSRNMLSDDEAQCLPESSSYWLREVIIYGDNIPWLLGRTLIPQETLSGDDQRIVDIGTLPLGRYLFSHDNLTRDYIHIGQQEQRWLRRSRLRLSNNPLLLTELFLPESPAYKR
T1 sequence (A7MPN9 whole entry, looked up): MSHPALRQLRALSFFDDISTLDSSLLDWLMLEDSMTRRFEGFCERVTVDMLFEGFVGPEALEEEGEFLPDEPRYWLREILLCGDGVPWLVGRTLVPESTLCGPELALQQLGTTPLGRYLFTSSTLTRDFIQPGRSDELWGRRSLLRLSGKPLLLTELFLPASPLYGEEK
chorismate-pyruvate lyase of Providencia burhodogranariea, sequence (K8VY45 entry or part of it): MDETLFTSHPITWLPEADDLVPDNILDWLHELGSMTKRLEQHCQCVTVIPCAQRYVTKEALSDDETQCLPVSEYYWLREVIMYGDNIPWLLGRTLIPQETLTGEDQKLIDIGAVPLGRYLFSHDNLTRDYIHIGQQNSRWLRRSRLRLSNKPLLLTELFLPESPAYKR

O=C(O)c1ccc(O)cc1 [Strain 4-HBA, 4-hydroxybenzoic acid]
Growth of Rhodobacter sphaeroides (Rhodobacter sphaeroides; 100 mM 4-HBA): completely inhibited | Growth of Rhodobacter sphaeroides (Rhodobacter sphaeroides; 200 mM 4-HBA): completely inhibited | Growth of Escherichia coli (Escherichia coli JM109; 100 mM 4-HBA): significantly affected | Growth of Escherichia coli (Escherichia coli JM109; 200 mM 4-HBA): completely inhibited | Growth of Corynebacterium glutamicum ([1]; 200 mM 4-HBA): able to grow | Growth, % of the OD610 of wild strain ([1]; 250 mM 4-HBA, 28 hours after the start of the culture, same extent as in the presence of 200 mM 4-HBA, data not shown): about 65% | Growth of Corynebacterium glutamicum ([1]; 250 mM 4-HBA): able to grow | IC50 [2]: 76 µM | IC50 [3]: 73 µM | IC50 [4]: 69 µM | IC50 [5]: 364 µM | IC50 [6]: 78 µM | IC50 [7]: 83 µM | IC50 [8]: 368 µM | IC50 [9]: 69 µM | IC50 [10]: 73 µM | IC50 [11]: 61 µM | IC50 [12]: 149 µM | IC50 [13]: 68 µM | IC50 [14]: 130 µM | IC50 [15]: 301 µM | IC50 [16]: 67 µM | IC50 [17]: 79 µM | IC50 [18]: 338 µM | IC50 [19]: 401 µM | IC50 [20]: 105 µM | Growth of Pseudomonas putida S12 (Pseudomonas putida S12): completely inhibited
